Experiments:
RPMI-8226 = assay: Inhibition of tumor cell proliferation, CellTiter-Glo, RPMI-8226; type: cell-based; conditions: compound concentration 50 μM, 72 hours
In short: (§1)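 Activity is graded from survival at 50 μM: + for 60 to under 90%, ++ for over 30 to 60%, +++ for 30% or less. Survival was measured luminescently (CellTiter-Glo) 72 h after dosing, relative to untreated and blank wells; 2000-10000 cells/well, 37° C, 5% CO2.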

K562 = assay: Inhibition of tumor cell proliferation, CellTiter-Glo, K562; type: cell-based; conditions: compound concentration 50 μM, 72 hours
In short: as §1

A549 = assay: Inhibition of tumor cell proliferation, CellTiter-Glo, A549; type: cell-based; conditions: compound concentration 50 μM, 72 hours
In short: as §1

SU-DHL6 = assay: Inhibition of tumor cell proliferation, CellTiter-Glo, SU-DHL6; type: cell-based; conditions: compound concentration 50 μM, 72 hours
In short: as §1

MDA-MB-453 = assay: Inhibition of tumor cell proliferation, CellTiter-Glo, MDA-MB-453; type: cell-based; conditions: compound concentration 50 μM, 72 hours
In short: as §1

LC3B = LC3B (Homo sapiens (Human), UniProt Q9GZQ8); assay: Fluorescence polarization experiment targeting LC3B (GST-LC3B with FITC-labeled peptide); conditions: GST-LC3B 180 nM, FITC-labeled peptide 18 nM, 25° C.
BxPC-3 = assay: Inhibition of tumor cell proliferation, CellTiter-Glo, BxPC-3; type: cell-based; conditions: compound concentration 50 μM, 72 hours
In short: as §1

SMILES	Inhibitory activity against proliferation (cell survival rate) RPMI-8226 (RPMI-8226)	Inhibitory activity against proliferation (cell survival rate) K562 (K562)	Inhibitory activity against proliferation (cell survival rate) A549 (A549)	Inhibitory activity against proliferation (cell survival rate) SU-DHL6 (SU-DHL6)	Inhibitory activity against proliferation (cell survival rate) MDA-MB-453 (MDA-MB-453)	IC50 (LC3B) [µM]	Inhibitory activity against proliferation (cell survival rate) BxPC-3 (BxPC-3)
O=C1CCC(N2Cc3c(NC=C4C(=O)CC(c5cccc6[nH]ccc56)CC4=O)cccc3C2=O)C(=O)N1 (stereo not shown) [Compound 3]	+ (60≤survival rate (%)<90)	+ (60≤survival rate (%)<90)	+ (60≤survival rate (%)<90)	+++ (survival rate (%)≤30)	++ (30<survival rate (%)≤60)	< 3	+ (60≤survival rate (%)<90)
O=C1CCC(N2C(=O)c3cccc(NC=C4C(=O)CC(c5cccc6[nH]ccc56)CC4=O)c3C2=O)C(=O)N1 (stereo not shown) [Compound 5]	+ (60≤survival rate (%)<90)	+ (60≤survival rate (%)<90)	+++ (survival rate (%)≤30)	+ (60≤survival rate (%)<90)	+++ (survival rate (%)≤30)	< 3	+ (60≤survival rate (%)<90)
O=C1CCC(N2C(=O)c3cccc(NC=C4C(=O)CC(c5cccc(Cl)c5Cl)CC4=O)c3C2=O)C(=O)N1 (stereo not shown) [Compound 6]	+ (60≤survival rate (%)<90)	+ (60≤survival rate (%)<90)	+ (60≤survival rate (%)<90)	+ (60≤survival rate (%)<90)	+ (60≤survival rate (%)<90)	< 3	+ (60≤survival rate (%)<90)
O=C1CCC(N2Cc3c(NC=C4C(=O)CC(c5cccc(Cl)c5Cl)CC4=O)cccc3C2=O)C(=O)N1 (stereo not shown) [Compound 7]	++ (30<survival rate (%)≤60)	++ (30<survival rate (%)≤60)	++ (30<survival rate (%)≤60)	+++ (survival rate (%)≤30)	++ (30<survival rate (%)≤60)	< 3	+ (60≤survival rate (%)<90)
O=C1CCC(N2Cc3c(NC=C4C(=O)CC(c5c(Br)ccc(F)c5Cl)CC4=O)cccc3C2=O)C(=O)N1 (stereo not shown) [Compound 11]	+ (60≤survival rate (%)<90)	+++ (survival rate (%)≤30)	+ (60≤survival rate (%)<90)	+ (60≤survival rate (%)<90)	+ (60≤survival rate (%)<90)	< 3	+ (60≤survival rate (%)<90)
O=C1CCC(N2C(=O)c3cccc(NC=C4C(=O)CC(c5cccc6[nH]cc(Cl)c56)CC4=O)c3C2=O)C(=O)N1 (stereo not shown) [Compound 12]	+ (60≤survival rate (%)<90)	+ (60≤survival rate (%)<90)	+ (60≤survival rate (%)<90)	+ (60≤survival rate (%)<90)	+ (60≤survival rate (%)<90)	< 3	+ (60≤survival rate (%)<90)
O=C1CCC(N2C(=O)c3cccc(NC=C4C(=O)CC(c5c(Br)ccc6[nH]cc(Cl)c56)CC4=O)c3C2=O)C(=O)N1 (stereo not shown) [Compound 13]	+ (60≤survival rate (%)<90)	+ (60≤survival rate (%)<90)	+++ (survival rate (%)≤30)	++ (30<survival rate (%)≤60)	+++ (survival rate (%)≤30)	< 3	++ (30<survival rate (%)≤60)
O=C1CCC(N2Cc3c(NC=C4C(=O)CC(c5c(Br)ccc6[nH]cc(Cl)c56)CC4=O)cccc3C2=O)C(=O)N1 (stereo not shown) [Compound 14]	+ (60≤survival rate (%)<90)	+ (60≤survival rate (%)<90)	+++ (survival rate (%)≤30)	++ (30<survival rate (%)≤60)	+++ (survival rate (%)≤30)	< 3	+ (60≤survival rate (%)<90)
O=C1CCC(N2Cc3c(NC=C4C(=O)CC(c5cccc6[nH]cc(C(F)(F)F)c56)CC4=O)cccc3C2=O)C(=O)N1 (stereo not shown) [Compound 15]	+++ (survival rate (%)≤30)	+ (60≤survival rate (%)<90)	+ (60≤survival rate (%)<90)	++ (30<survival rate (%)≤60)	+ (60≤survival rate (%)<90)	< 3	++ (30<survival rate (%)≤60)
O=C1CCC(N2Cc3c(NC=C4C(=O)CC(c5c(Br)ccc6[nH]cc(C(F)(F)F)c56)CC4=O)cccc3C2=O)C(=O)N1 (stereo not shown) [Compound 16]	+++ (survival rate (%)≤30)	+ (60≤survival rate (%)<90)	+ (60≤survival rate (%)<90)	+ (60≤survival rate (%)<90)	+ (60≤survival rate (%)<90)	< 3	+ (60≤survival rate (%)<90)
O=C1CCC(N2Cc3c(NC=C4C(=O)CC(c5ccc(F)cc5Br)CC4=O)cccc3C2=O)C(=O)N1 (stereo not shown) [Compound 17]	+++ (survival rate (%)≤30)	+ (60≤survival rate (%)<90)	++ (30<survival rate (%)≤60)	+ (60≤survival rate (%)<90)	+ (60≤survival rate (%)<90)	< 3	+ (60≤survival rate (%)<90)
O=C1CCC(N2Cc3c(NC=C4C(=O)CC(c5ccccc5Br)CC4=O)cccc3C2=O)C(=O)N1 (stereo not shown) [Compound 18]	+ (60≤survival rate (%)<90)	++ (30<survival rate (%)≤60)	+ (60≤survival rate (%)<90)	++ (30<survival rate (%)≤60)	+ (60≤survival rate (%)<90)	< 3	+ (60≤survival rate (%)<90)
O=C1CCC(N2Cc3c(NC=C4C(=O)CC(c5ccc(F)cc5)CC4=O)cccc3C2=O)C(=O)N1 (stereo not shown) [Compound 19]	++ (30<survival rate (%)≤60)	++ (30<survival rate (%)≤60)	+ (60≤survival rate (%)<90)	+ (60≤survival rate (%)<90)	++ (30<survival rate (%)≤60)	< 3	++ (30<survival rate (%)≤60)
O=C1CCC(N2C(=O)c3cccc(NC(=O)CNC=C4C(=O)CC(c5ccccc5)CC4=O)c3C2=O)C(=O)N1 (stereo not shown) [Compound 49]	++ (30<survival rate (%)≤60)		++ (30<survival rate (%)≤60)	++ (30<survival rate (%)≤60)	++ (30<survival rate (%)≤60)	100 to 1000	+ (60≤survival rate (%)<90)
